According to patent US11723907B2, “Anti-aging compounds” (THE CLEVELAND CLINIC FOUNDATION, priority 2017, dated 2023):

Experiments:
fibroblasts = assay: Gene expression analysis of fibroblasts (RNAseq); type: cell-based; details: RNAseq exome
normal fibroblasts = assay: Telomere length in treated fibroblasts; type: cell-based
Source text: (§1) Based on results obtained on tissue cultured cells (increased RLS) and an increase in the numbers of HSC surrogate cells (LTC-IC or CFU), the inventors set their future goal to develop a novel pharmacological treatment for AA patients and potentially for other BMF. They have examined the most prominent features of cellular aging: telomere shortening, mitochondrial dysfunction or decline in respiratory capacity and shift in intracellular redox balance toward more oxidized environment. […] The only persistent effect of VA was considerable reduction in global protein disulfide bonds (up to 30%) detected by Elman's reagent or direct labelling of reduced sulfhydryl groups with biotin-switch assay (FIG. 3A). That brought the reductive hypothesis to the inventors' attention. The redox potential is controlled by sophisticated set of diverse enzymes and this system is fed from generation of NADPH by multiple hydrogenases (FIG. 3B). Among them, the glucose-6-phosphate dehydrogenase (G6P) is most important, because it controls the rate limiting step of pentose phosphate pathway. The other important dehydrogenases are isocytrate dehydrogenases (cytoplasmic and mitochondrial, IDH1/2) and 6-phosphogluconate dehydrogenase (6PG). The next anti-oxidant cellular protection layer is thioredoxin and glutathione systems (FIG. 3B). The first one is composed of thioredoxin reductase (TrxR) and thioredoxin. […]

[1] = test system: fibroblasts derived from Werner syndrome patient; assay: RLS of Werner syndrome fibroblasts; type: cell-based, human
Source text: (§2) FIGS. 1A-1I provide graphs and images showing a new high throughput method for simultaneous detection of senescence associated SAβG activity and ATP in culture of normal pre-aged cells identified two potent anti-aging scaffolds. (A). General schema of HTS. (B). […] (C). Structures and corresponding tautameric forms of lead compounds. (D) Evaluation of possible genotoxic effect of experimental drugs in modified Ames test. 4-Nitroquinoline 1-oxide (4NQO) was used as a positive control. […] The general schema of RLS measurement in different cell types. (F) VA and N2N1 considerably extend RLS of normal human fibroblasts (NHDF) and stromal cells isolated from human normal bone marrow. (G). […] (I). Upper panel: Morphological appearance of NHDF at late passages with or without treatment. Lower panel: Cells were also fixed in para-formaldehyde and stained to detect SAβG.

[2] = test system: fibroblasts derived from a patient diagnosed with Bloom syndrome; assay: RLS of Bloom syndrome fibroblasts; type: cell-based, human
Source text: as §2

[3] = test system: hematopoietic colony assays; assay: Hematologic toxicity in hematopoietic colony assays; type: cell-based
Source text: They have first applied them in a battery of tissue culture assays measuring i) exhaustion kinetics of HSC and ii) hematologic toxicity. […] The inventors then focused our studies on HSC performance measured in CFU assay and in LTC-IC (FIG. 2), the best in vitro surrogate assay for the quantification and functional assessment of HSCs.

[4] = test system: mitochondrial respiration rate; assay: Mitochondrial respiration and glycolysis on Seahorse apparatus; type: cell-based; details: within few minutes or even hours after addition
Source text: as §1

[5] = Modified Ames test for genotoxic effect; details: 4NQO positive control
Source text: as §2

NHDF = assay: SAβG staining of NHDF at late passages; type: cell-based, human
Source text: as §2
The inventors developed a new high-throughput screening (HTS) method for identification of anti-aging drugs (FIG. 1). The novel method was specifically designed for simultaneous detection of β-galactosidase activity in cell lysate followed by ATP detection by standard luciferase based assay. […] Altogether, the procedure allowed a simultaneous quantifiable detection of senescence associated β-galactosidase (SAβG) activity and evaluation of ATP level as a sign of improved proliferative capacity or cytotoxicity. […]

SMILES | expression of stem cell markers (fibroblasts) | telomere length (normal fibroblasts) | response of RLS to treatment [1] | response of RLS to treatment [2] | LD50 [3] | immediate response in mitochondrial respiration rate or glycolysis efficacy [4] | genotoxic effect [5] | number of SAβG positive cells (NHDF)
O=C1/C(=N/O)C=Cc2ccccc21 [N2N1, 1-naphthoquinone-2-monoxime] | revealed the expression of some stem cell markers | maintenance of telomere length was observed | did not respond | responded positively | 15 µM | could not detect any immediate | did not show any detrimental effect on DNA integrity | substantially decreased
O=C1NC(=O)C(=NO)C(=O)N1 [VA, 2,4,5,6(1H,3H)-pyrimidine-tetrone 5-oxime] | revealed the expression of some stem cell markers | maintenance of telomere length was observed | did not respond | responded positively | 5000 µM | could not detect any immediate | did not show any detrimental effect on DNA integrity | substantially decreased
